Like-named read-outs stand apart in the source and are kept apart here. Starred links: 1 amine or outer side, 2 acyl side, 3 side chain; linkers in the order of their positions; H or OH if unused. Positions of bridges follow the written chain, without caps; N, C: chain ends. Non-standard residues stand in square brackets, D forms with d. Residues, ends and D or L forms follow the SMILES beside them. *: point of attachment. Bip(4'-NHCO-C6H4-3-CH2COOH) = N[C@@H](Cc1ccc(-c2ccc(NC(=O)c3cccc(CC(=O)O)c3)cc2)cc1)C(=O)O; Bip(4'-NH) = O=C([C@H](Cc1ccc(-c2ccc(N[*:3])cc2)cc1)N[*:1])[*:2]; dArg(ω-Bn(3-CH2OH)) = N=C(NCCC[C@@H](N)C(=O)O)NCc1cccc(CO)c1; Indazole3carbonyl(1-CH2COOH) = O=C(O)Cn1nc(C(=O)*)c2ccccc21; Bip(4'-COOH) = N[C@@H](Cc1ccc(-c2ccc(C(=O)O)cc2)cc1)C(=O)O; X87 = N=C(NCCC[C@@H](N[*:1])C(=O)[*:2])NCc1ccc(C(=O)O)cc1; X44 = N#Cc1ccc(CNC(=N)NCCC[C@@H](N[*:1])C(=O)[*:2])cc1; X28 = N=C(NCCC[C@@H](N[*:1])C(=O)[*:2])NCc1ccc(CN)cc1; X7 = N=C(NCCC[C@@H](N[*:1])C(=O)[*:2])NCc1ccc2occc2c1; Ala(morpholin-4-yl) = N[C@@H](CN1CCOCC1)C(=O)O; Benzoyl(3-OCH2COOH) = O=C(O)COc1cccc(C(=O)*)c1; Benzoyl(4-OCH2COOH) = O=C(O)COc1ccc(C(=O)*)cc1; Bip = N[C@@H](Cc1ccc(-c2ccccc2)cc1)C(=O)O; Cha = N[C@@H](CC1CCCCC1)C(=O)O; X62 = COC(=O)Cc1cccc(C(=O)*)c1; Tle = CC(C)(C)[C@H](N)C(=O)O; Sar = CNCC(=O)O
Biological target: TNFα (Homo sapiens, UniProt P01375)
Sequence (P01375 77-233 limits assumed): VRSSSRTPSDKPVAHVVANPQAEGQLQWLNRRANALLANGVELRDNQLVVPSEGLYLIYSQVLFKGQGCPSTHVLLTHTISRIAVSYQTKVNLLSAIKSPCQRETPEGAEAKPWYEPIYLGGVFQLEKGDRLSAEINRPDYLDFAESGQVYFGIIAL
Assay: TNF-Induced HEK-Blue Assay
Type: cell-based
[1] = HEK-Blue-CD40L cells, NF-kB-driven secreted alkaline phosphatase reporter, TNFα 0.5 ng/ml, 18 h, read-out: TNF induced HEK-Blue assay IC50 value

| Structure (SMILES) | IC50 [1] | IC50 |
| --- | --- | --- |
| CC[C@H](C)[C@@H]1NC(=O)[C@@H](CCCNC(=N)NCc2cccc(CO)c2)NC(=O)[C@H](CC(=O)O)NC(=O)[C@H](Cc2cnc[nH]2)NC(=O)CN(C)C(=O)[C@H](Cc2ccc(-c3ccc(NC(=O)c4cccc(OCC(=O)O)c4)cc3)cc2)NC(=O)[C@H](Cc2ccc(-c3ccccc3)cc2)NC(=O)[C@H](CC2CCCCC2)NC(=O)CSC[C@@H](C(=O)NCC(N)=O)NC(=O)[C@H](CC(C)C)NC(=O)[C@H](Cc2cnc[nH]2)NC(=O)[C@H](C(C)C)NC(=O)[C@@H]2CCCN2C1=O [Example 498] ({CH2CO}-[Cha][Bip][Bip(4'-NH)](Benzoyl(3-OCH2COOH))[Sar]HD[dArg(ω-Bn(3-CH2OH))]IPVHLCG-NH2; thioether N-13) | 50 to 200 nM | – |
| CC[C@H](C)[C@@H]1NC(=O)[C@@H](CCCNC(=N)NCc2ccc3occc3c2)NC(=O)[C@H](CC(=O)O)NC(=O)[C@H](Cc2cnc[nH]2)NC(=O)CN(C)C(=O)[C@H](Cc2ccc(-c3ccc(NC(=O)c4cccc(OCC(=O)O)c4)cc3)cc2)NC(=O)[C@H](Cc2ccc(-c3ccccc3)cc2)NC(=O)[C@H](CC2CCCCC2)NC(=O)CSC[C@@H](C(=O)NCC(N)=O)NC(=O)[C@H](CC(C)C)NC(=O)[C@H](Cc2cnc[nH]2)NC(=O)[C@H](C(C)C)NC(=O)[C@@H]2CCCN2C1=O [Example 499] ({CH2CO}-[Cha][Bip][Bip(4'-NH)](Benzoyl(3-OCH2COOH))[Sar]HD[X7]IPVHLCG-NH2; thioether N-13) | < 50 nM | – |
| CC(C)C[C@@H]1NC(=O)[C@H](CCCNC(=N)N)NC(=O)[C@H](C(C)C)NC(=O)[C@@H]2CCCN2C(=O)[C@H](C(C)C)NC(=O)[C@@H](CCCNC(=N)NCc2cccc(CO)c2)NC(=O)[C@H](CC(=O)O)NC(=O)[C@@H]2CCCN2C(=O)CN(C)C(=O)[C@H](Cc2ccc(-c3ccc(NC(=O)c4ccc(OCC(=O)O)cc4)cc3)cc2)NC(=O)[C@H](Cc2ccc(-c3ccccc3)cc2)NC(=O)[C@H](CN2CCOCC2)NC(=O)CSC[C@@H](C(=O)NCC(N)=O)NC1=O [Example 500] ({CH2CO}-[Ala(morpholin-4-yl)][Bip][Bip(4'-NH)](Benzoyl(4-OCH2COOH))[Sar]PD[dArg(ω-Bn(3-CH2OH))]VPVRLCG-NH2; thioether N-13) | < 50 nM | – |
| CC(C)C[C@@H]1NC(=O)[C@H](CCCNC(=N)N)NC(=O)[C@H](C(C)C)NC(=O)[C@@H]2CCCN2C(=O)[C@H](C(C)C)NC(=O)[C@@H](CCCNC(=N)NCc2ccc(CN)cc2)NC(=O)[C@H](CC(=O)O)NC(=O)[C@@H]2CCCN2C(=O)CN(C)C(=O)[C@H](Cc2ccc(-c3ccc(NC(=O)c4nn(CC(=O)O)c5ccccc45)cc3)cc2)NC(=O)[C@H](Cc2ccc(-c3ccccc3)cc2)NC(=O)[C@H](CN2CCOCC2)NC(=O)CSC[C@@H](C(=O)NCC(N)=O)NC1=O [Example 501] ({CH2CO}-[Ala(morpholin-4-yl)][Bip][Bip(4'-NH)](Indazole3carbonyl(1-CH2COOH))[Sar]PD[X28]VPVRLCG-NH2; thioether N-13) | – | 50 to 200 nM |
| CC[C@H](C)[C@@H]1NC(=O)[C@@H](CCCNC(=N)N)NC(=O)[C@H](CC(=O)O)NC(=O)[C@H](Cc2cnc[nH]2)NC(=O)CN(C)C(=O)[C@H](Cc2ccc(-c3ccc(NC(=O)c4cccc(CC(=O)OC)c4)cc3)cc2)NC(=O)[C@H](Cc2ccc(-c3ccccc3)cc2)NC(=O)[C@H](C(C)(C)C)NC(=O)CSC[C@@H](C(=O)NCC(N)=O)NC(=O)[C@H](CC(C)C)NC(=O)[C@H](Cc2c[nH]cn2)NC(=O)[C@H](C(C)C)NC(=O)[C@@H]2CCCN2C1=O [Example 502] ({CH2CO}-[Tle][Bip][Bip(4'-NH)](X62)[Sar]HD[dR]IPVHLCG-NH2; thioether N-13) | – | < 50 nM |
| CC[C@H](C)[C@@H]1NC(=O)[C@@H](CCCNC(=N)N)NC(=O)[C@H](CC(=O)O)NC(=O)[C@H](Cc2cnc[nH]2)NC(=O)CN(C)C(=O)[C@H](Cc2ccc(-c3ccc(NC(=O)c4cccc(CC(=O)OC)c4)cc3)cc2)NC(=O)[C@H](Cc2ccc(-c3ccc(C(=O)O)cc3)cc2)NC(=O)[C@H](CC2CCCCC2)NC(=O)CSC[C@@H](C(=O)NCC(N)=O)NC(=O)[C@H](CC(C)C)NC(=O)[C@H](Cc2c[nH]cn2)NC(=O)[C@H](C(C)C)NC(=O)[C@@H]2CCCN2C1=O [Example 503] ({CH2CO}-[Cha][Bip(4'-COOH)][Bip(4'-NH)](X62)[Sar]HD[dR]IPVHLCG-NH2; thioether N-13) | – | < 50 nM |
| CC[C@H](C)[C@@H]1NC(=O)[C@@H](CCCNC(=N)NCc2cccc(CO)c2)NC(=O)[C@H](CC(=O)O)NC(=O)[C@H](Cc2cnc[nH]2)NC(=O)CN(C)C(=O)[C@H](Cc2ccc(-c3ccc(NC(=O)c4cccc(CC(=O)O)c4)cc3)cc2)NC(=O)[C@H](Cc2ccc(-c3ccccc3)cc2)NC(=O)[C@H](CC2CCCCC2)NC(=O)CSC[C@@H](C(=O)NCC(N)=O)NC(=O)[C@H](CC(C)C)NC(=O)[C@H](Cc2c[nH]cn2)NC(=O)[C@H](C(C)C)NC(=O)[C@@H]2CCCN2C1=O [Example 504] ({CH2CO}-[Cha][Bip][Bip(4'-NHCO-C6H4-3-CH2COOH)][Sar]HD[dArg(ω-Bn(3-CH2OH))]IPVHLCG-NH2; thioether N-13) | < 50 nM | – |
| CC[C@H](C)[C@@H]1NC(=O)[C@@H](CCCNC(=N)NCc2ccc3occc3c2)NC(=O)[C@H](CC(=O)O)NC(=O)[C@H](Cc2cnc[nH]2)NC(=O)CN(C)C(=O)[C@H](Cc2ccc(-c3ccc(NC(=O)c4cccc(CC(=O)O)c4)cc3)cc2)NC(=O)[C@H](Cc2ccc(-c3ccccc3)cc2)NC(=O)[C@H](CC2CCCCC2)NC(=O)CSC[C@@H](C(=O)NCC(N)=O)NC(=O)[C@H](CC(C)C)NC(=O)[C@H](Cc2c[nH]cn2)NC(=O)[C@H](C(C)C)NC(=O)[C@@H]2CCCN2C1=O [Example 505] ({CH2CO}-[Cha][Bip][Bip(4'-NHCO-C6H4-3-CH2COOH)][Sar]HD[X7]IPVHLCG-NH2; thioether N-13) | 50 to 200 nM | – |
| CC(C)C[C@@H]1NC(=O)[C@H](CCCNC(=N)N)NC(=O)[C@H](C(C)C)NC(=O)[C@@H]2CCCN2C(=O)[C@H](C(C)C)NC(=O)[C@@H](CCCNC(=N)NCc2ccc(C#N)cc2)NC(=O)[C@H](CC(=O)O)NC(=O)[C@@H]2CCCN2C(=O)CN(C)C(=O)[C@H](Cc2ccc(-c3ccc(NC(=O)c4nn(CC(=O)O)c5ccccc45)cc3)cc2)NC(=O)[C@H](Cc2ccc(-c3ccccc3)cc2)NC(=O)[C@H](CN2CCOCC2)NC(=O)CSC[C@@H](C(=O)NCC(N)=O)NC1=O [Example 506] ({CH2CO}-[Ala(morpholin-4-yl)][Bip][Bip(4'-NH)](Indazole3carbonyl(1-CH2COOH))[Sar]PD[X44]VPVRLCG-NH2; thioether N-13) | – | < 50 nM |
| CC(C)C[C@@H]1NC(=O)[C@H](CCCNC(=N)N)NC(=O)[C@H](C(C)C)NC(=O)[C@@H]2CCCN2C(=O)[C@H](C(C)C)NC(=O)[C@@H](CCCNC(=N)NCc2ccc(C(=O)O)cc2)NC(=O)[C@H](CC(=O)O)NC(=O)[C@@H]2CCCN2C(=O)CN(C)C(=O)[C@H](Cc2ccc(-c3ccc(NC(=O)c4nn(CC(=O)O)c5ccccc45)cc3)cc2)NC(=O)[C@H](Cc2ccc(-c3ccccc3)cc2)NC(=O)[C@H](CN2CCOCC2)NC(=O)CSC[C@@H](C(=O)NCC(N)=O)NC1=O [Example 507] ({CH2CO}-[Ala(morpholin-4-yl)][Bip][Bip(4'-NH)](Indazole3carbonyl(1-CH2COOH))[Sar]PD[X87]VPVRLCG-NH2; thioether N-13) | – | < 50 nM |
